Test results: paper PMC2765688, “Functional Characterization of N-Terminally GFP-Tagged GLP-1 Receptor” (Journal of Biomedicine and Biotechnology, 2009)

Assays:
GFP-GLP-1 receptor = target: T1, GFP-GLP-1 receptor (Homo sapiens, UniProt P43220); assay: cAMP production, CHO cells expressing GFP-GLP-1 receptor; assay type: cell-based; conditions: 10 μM forskolin, 15 min, 37°C
T1 construct: linker: translated MCS of pEGFP-C3 plus translated 5'-untranslated region of clone hGLPR-6(20), between EGFP and the receptor (N); expressed in transfected cells; host or cells: CHO cells, transient transfection, pEGFP-C3
Description: (§1) Cells were plated in 6-well plates at 50 × 10^4 cells/well and incubated 24 hours in growth medium supplemented with 10% fetal bovine serum.
(§2) After stimulation, stimulating buffer was removed and replaced with 150 μL of TE buffer (50 mM Tris, 5 mM EDTA, pH = 7.4). Cells were lysed by scraping, followed by boiling at 100°C for 5 minutes and centrifuged at 16000× g for 10 minutes. The supernatant was collected and the total content of cAMP was measured by a specific radioimmunoassay (Amersham).
(§3) Statistical analysis (one-way ANOVA) was carried out by Prism 4 computer program (GraphPad Software, USA), which was used also for graphical presentation of the results. In ANOVA analysis Tukey-Kramer multiple comparison test was used to reveal significant differences between groups of interest; P > .05 was not considered significant.

human GLP-1 receptor = target: T2, human GLP-1 receptor (Homo sapiens, UniProt P43220); assay: cAMP production, CHO cells expressing GLP-1 receptor; assay type: cell-based; conditions: 10 μM forskolin, 15 min, 37°C, P < .001
T2 construct: expressed in transfected cells; host or cells: CHO cells, transient transfection, pcDNA3
Description: as §1, §2, §3

cAMP production in response to forskolin (in words) (GFP-GLP-1 receptor; CHO cells expressing GFP-GLP-1 receptor, P < .001): significantly increased | Sensitivity to forskolin of GFP-GLP-1 receptor cells in comparison to GLP-1 receptor cells (in words) (GFP-GLP-1 receptor; Tukey-Kramer test): not more sensitive | cAMP production in response to forskolin (in words) (human GLP-1 receptor): significantly increased
SMILES: C=C[C@@]1(C)CC(=O)[C@]2(O)[C@@]3(C)[C@@H](O)CCC(C)(C)[C@@H]3[C@H](O)[C@H](OC(C)=O)[C@@]2(C)O1 [forskolin]
